Measurements as given in patent US8884030B2, “Inhibitors of Flaviviridae viruses” (priority 2010, dated 2014).
Where two headings read alike, the source gives them in different places.

Tested on: human hepatoma Huh-7 cell line harboring a HCV replicon
Experiment: HCV replicon assay (inhibition of viral replication, luciferase)
Assay type: cell-based
Details: Hepatitis C virus, read-out: % inhibition at 2 μM
Procedure: The anti-HCV activity of the compounds of this invention was tested in a human hepatoma Huh-7 cell line harboring a HCV replicon. The assay comprised the following steps:
Step 1: Compound Preparation and Serial Dilution.
Serial dilution was performed in 100% DMSO in a 384-well plate. A solution containing a compound at 225-fold concentration of the starting final serial dilution concentration was prepared in 100% DMSO and 15 uL added to the pre-specified wells in column 3 or 13 of a polypropylene 384-well plate. The rest of the 384-well plate was filled with 10 uL 100% DMSO except for columns 23 and 24, where 10 uL of 500 uM a HCV protease inhibitor (ITMN-191) in 100% DMSO was added. The HCV protease inhibitor was used a control of 100% inhibition of HCV replication. The plate was then placed on a Biomek FX Workstation to start the serial dilution. The serial dilution was performed for ten cycles of 3-fold dilution from column 3 to 12 or from column 13 to 22.
Step 2: Cell Culture Plate Preparation and Compound Addition
To each well of a black polypropylene 384-well plate, 90 μL of cell media containing 1600 suspended Huh-7 HCV replicon cells was added with a Biotek uFlow Workstation. A volume of 0.4 μL of the compound solution was transferred from the serial dilution plate to the cell culture plate on a Biomek FX Workstation. The DMSO concentration in the final assay condition was 0.44%. The plates were incubated for 3 days at 37° C. with 5% CO2 and 85% humidity.
Step 3: Detection of Cytotoxicity and Inhibition of Viral Replication
a) Assessment of cytotoxicity: The media in the 384-well cell culture plate was aspirated with a Biotek EL405 plate-washer. A volume of 50 μL of a solution containing 400 nM Calcein AM in 100% PBS was added to each well of the plate with a Biotek uFlow Workstation. The plate was incubated for 30 minutes at room temperature before the fluorescence signal ([…]) was measured with a Perkin Elmer Envision Plate Reader.
b) Assessment of inhibition of viral replication: The calcein-PBS solution in the 384-well cell culture plate was aspirated with a Biotek EL405 plate-washer. A volume of 20 μL of Dual-Glo luciferase buffer (Promega, Dual-Glo Luciferase Assay Reagent, cat. #E298B) was added to each well of the plate with a Biotek uFlow Workstation. The plate was incubated for 10 minutes at room temperature. A volume of 20 μL of a solution containing 1:100 mixture of Dual-Glo Stop & Glo substrate(Promega, Dual-Glo Luciferase Assay Reagent, cat. #E313B) and Dual-Glo Stop & Glo buffer (Promega, Dual-Glo Luciferase Assay Reagent, cat. #E314B) was then added to each well of the plate with a Biotek uFlow Workstation. The plate was incubated at room temperature for 10 minutes before the luminescence signal was measured with a Perkin Elmer Envision Plate Reader.
The percent cytotoxicity was determined by calcein AM conversion to fluorescent product. The average fluorescent signal from the DMSO control wells were defined as 100% nontoxic. The individual fluorescent signal from testing compound treated well was divided by the average signal from DMSO control wells and then multiplied by 100% to get the percent viability. The percent anti-HCV replication activity was determined by the luminescence signal from the testing well compared to DMSO controls wells. The background signal was determined by the average luminescence signal from the HCV protease inhibitor treated wells and was subtracted from the signal from the testing wells as well as the DMSO control wells. Following 3-fold serial dilutions, the EC50 and CC50 values were calculated by fitting % inhibition at each concentration to the following equation: % inhibition=100%[(EC50/[l])^b+1]
Where b is Hill's coefficient. See, for reference, Hill, A. V., The Possible Effects of the Aggregation of the Molecules of Hæmoglobin on its Dissociation Curves, J. Physiol. 40: iv-vii. (1910). […]

[1] = 72 h, 2 μM, Huh-7 HCV replicon cells, 3 days incubation, inhibition of viral replication

Structure (SMILES)	inhibition at 2 µM [1] [%]	inhibition at 2 µM (Huh-7, 72 h) [%]
CC(C)(C)C#Cc1cc(N(C(=O)[C@H]2CC[C@H](C)CC2)C2CCC(NS(=O)(=O)c3cccnc3)CC2)c(C(=O)O)s1 (stereo partly drawn) [Compound 165, 5-(3,3-dimethyl-but-1-ynyl)-3-{(4-trans-methyl-cyclohexanecarbonyl)-[4-(pyridine-3-sulfonylamino)-cyclohexyl]-amino}-thiophene-2-carboxylic acid]	95.7	–
CC1CCC(C(=O)N(c2cc(C#CC(C)(C)C)sc2C(=O)O)N(C)CCO)CC1 (stereo not drawn) [Compound 135, 5-(3,3-dimethyl-but-1-ynyl)-3-[N′-(2-hydroxy-ethyl)-N′-methyl-N-(4-methyl-cyclohexanecarbonyl)-hydrazino]-thiophene-2-carboxylic acid]	99.8	–
CC(C)(C)C#Cc1cc(N(C(=O)[C@H]2CC[C@H](C)CC2)C2CCN(C(=O)OC3(C)CCN(C(=O)OC(C)(C)C)C3)CC2)c(C(=O)O)s1 (stereo partly drawn) [Compound 71]	95.1	–
CC(C)(C)C#Cc1cc(N(C(=O)[C@H]2CC[C@H](C)CC2)C2CCN(C(=O)O[C@@H]3CNC(=O)C3)CC2)c(C(=O)O)s1 [Compound 56, 4-[[2-carboxy-5-(3,3-dimethyl-but-1-ynyl)-thiophen-3-yl]-(4-trans-methyl-cyclohexanecarbonyl)-amino]-piperidine-1-carboxylic acid 5-oxo-pyrrolidin-3-(S)-yl ester]	92.8	–
CC1CCC(C(=O)N(c2cc(C#CC(C)(C)C)sc2C(=O)O)C2CCC(NN(C)C(=O)Oc3ccccn3)CC2)CC1 (stereo not drawn) [Compound 218, 5-(3,3-dimethyl-but-1-ynyl)-3-((4-methyl-cyclohexanecarbonyl)-{4-[N′-methyl-N′-(pyridin-2-yloxycarbonyl)-hydrazino]-cyclohexyl}-amino)-thiophene-2-carboxylic acid]	–	100
CC(C)(C)C#Cc1cc(N(C(=O)[C@H]2CC[C@H](C)CC2)C2CCC(NC(=O)OC3CCOCC3)CC2)c(C(=O)O)s1 (stereo partly drawn) [Compound 32, 5-(3,3-dimethyl-but-1-ynyl)-3-{(4-trans-methyl-cyclohexanecarbonyl)-[4-(tetrahydro-pyran-4-yloxycarbonylamino)-cyclohexyl]-amino}-thiophene-2-carboxylic acid]	100	–
CC(C)(C)C#Cc1cc(N(C(=O)[C@H]2CC[C@H](C)CC2)[C@H]2CCN(C(=O)OC3CCNCC3)C2)c(C(=O)O)s1 [Compound 40, 3-(S)-[[2-carboxy-5-(3,3-dimethyl-but-1-ynyl)-thiophen-3-yl]-(4-trans-methyl-cyclohexanecarbonyl)-amino]-pyrrolidine-1-carboxylic acid piperidin-4-yl ester]	98.6	–
CC(C)(C)C#Cc1cc(N(C(=O)[C@H]2CC[C@H](C)CC2)C2CCN(C(=O)OC3CCS(=O)(=O)C3)CC2)c(C(=O)O)s1 (stereo partly drawn) [Compound 74, 4-[[2-carboxy-5-(3,3-dimethyl-but-1-ynyl)-thiophen-3-yl]-(trans-4-methyl-cyclohexanecarbonyl)-amino]-piperidine-1-carboxylic acid 1,1-dioxo-tetrahydro-1λ^6-thiophen-3-yl ester]	99.7	–
CC(C)(C)C#Cc1cc(N(C(=O)[C@H]2CC[C@H](C)CC2)C2CCC(NC(=O)O[C@@H]3CCCNC3)CC2)c(C(=O)O)s1 (stereo partly drawn) [Compound 47, 5-(3,3-dimethyl-but-1-ynyl)-3-{(4-trans-methyl-cyclohexanecarbonyl)-[4-(piperidin-3-(R)-yloxycarbonylamino)-cyclohexyl]-amino}-thiophene-2-carboxylic acid]	99.9	–
CC(C)(C)C#Cc1cc(N(C(=O)[C@H]2CC[C@H](C)CC2)C2CCC(=NOCC#N)CC2)c(C(=O)O)s1 (stereo partly drawn) [Compound 116, 3-(N-(4-(Cyanomethoxyimino)cyclohexyl)-4-methylcyclohexanecarboxamido)-5-(3,3-dimethylbut-1-ynyl)thiophene-2-carboxylic acid]	99.9	–
CC(C)(C)C#Cc1cc(N(C(=O)[C@H]2CC[C@H](C)CC2)C2CCC(NC(=O)O[C@H]3CO[C@H]4OCC[C@H]43)CC2)c(C(=O)O)s1 (stereo partly drawn) [Compound 66, 5-(3,3-Dimethyl-but-ynyl)-3-[[4-(hexahydro-furo[2,3-b]furan-3-yloxycarbonylamino)-cyclohexyl]-(trans-4-methyl-cyclohexanecarbonyl)-amino]-thiophene-2-carboxylic acid]	99.9	–
CC1CCC(C(=O)N(c2cc(C#CC(C)(C)C)sc2C(=O)O)N(C)C2CCN(C)CC2)CC1 (stereo not drawn) [Compound 129, 5-(3,3-dimethyl-but-1-ynyl)-3-[N′-methyl-N-(4-methyl-cyclohexanecarbonyl)-N′-(1-methyl-piperidin-4-yl)-hydrazino]-thiophene-2-carboxylic acid]	100	–
CC(C)(C)C#Cc1cc(N(C(=O)[C@H]2CC[C@H](C)CC2)C2CCN(C(=O)OC3CCOCC3)CC2)c(C(=O)O)s1 [Compound 54, 4-[[2-carboxy-5-(3,3-dimethyl-but-1-ynyl)-thiophen-3-yl]-(4-trans-methyl-cyclohexanecarbonyl)-amino]-piperidine-1-carboxylic acid tetrahydro-pyran-4-yl ester]	99.8	–
CC(C)(C)C#Cc1cc(N(C(=O)[C@H]2CC[C@H](C)CC2)C2CCC(NC(=O)OC3CCS(=O)(=O)C3)CC2)c(C(=O)O)s1 (stereo partly drawn) [Compound 77, 5-(3,3-dimethyl-but-1-ynyl)-3-[[4-(1,1-dioxo-tetrahydro-1λ^6-thiophen-3-yloxycarbonylamino)-cyclohexyl]-(trans-4-methylcyclohexanecarbonyl)-amino]-thiophene-2-carboxylic acid]	99.9	–
C[C@@H](CCNC(=O)O[C@H]1CO[C@H]2OCC[C@H]21)N(c1cc(C#CC(C)(C)C)sc1C(=O)O)C(=O)[C@H]1CC[C@H](C)CC1 [Compound 64, 5-(3,3-Dimethyl-but-1-ynyl)-3-[[3-(hexahydro-furo[2,3-b]furan-3-yloxycarbonylamino)-1-(S)-methyl-propyl]-(trans-4-methyl-cyclohexanecarbonyl)-amino]-thiophene-2-carboxylic acid]	100	–
CC1CCC(C(=O)N(c2cc(C#CC(C)(C)C)sc2C(=O)O)C2CCC(NN(C)C(=O)OC3CCOCC3)CC2)CC1 (stereo not drawn) [Compound 217, 5-(3,3-dimethyl-but-1-ynyl)-3-((4-methyl-cyclohexanecarbonyl)-{4-[N′-methyl-N′-(tetrahydro-pyran-4-yloxycarbonyl)-hydrazino]-cyclohexyl}-amino)-thiophene-2-carboxylic acid]	100	–
CC(C)(C)C#Cc1cc(N(C(=O)[C@H]2CC[C@H](C)CC2)[C@H]2CCN(C(=O)OC3CCS(=O)(=O)C3)C2)c(C(=O)O)s1 (stereo partly drawn) [Compound 70, 3-[[2-carboxy-5-(3,3-dimethyl-but-1-ynyl)-thiophene-3-yl]-(trans-4-methylcyclohexanecarbonyl)-3-(S)-amino]-pyrrolidine-1-carboxylic acid 1,1-dioxo-tetrahydro-1λ^6-thiophene-3-yl ester]	99.1	–
CC(C)(C)C#Cc1cc(N(C(=O)[C@H]2CC[C@H](C)CC2)[C@H]2CCN(C(=O)OC3(C)CCN(C(=O)OC(C)(C)C)C3)C2)c(C(=O)O)s1 (stereo in doubt) [Compound 67, 3-(S)-{3-[[2-Carboxy-5-(3,3-dimethyl-but-1-ynyl)-thiophene-3-yl](trans-4-methyl-cyclohexanecarbonyl)-amino]-pyrrolidine-1-carbonyloxy}-3-methyl-pyrrolidine-1-carboxylic acid tert-butyl ester]	99	–
